In EP3418270A1, “NOVEL BIPHENYLSULFOXIMINES AS ALLOSTERIC MODULATORS OF THE DOPAMINE D1 RECEPTOR” (Universidad Complutense De Madrid, priority 2017, dated 2018):
pEC50: −log10 of the molar value.

Experiments:
human D4 receptors = molecular target: T1, human D4 receptors (Homo sapiens, UniProt P21917); experiment: Functional assay at human D4 receptors: PatHunter Beta-arrestin express GPCR assay; type: cell-based; conditions: beta-arrestin translocation, Figure 5
T1 sequence (P21917 1-419): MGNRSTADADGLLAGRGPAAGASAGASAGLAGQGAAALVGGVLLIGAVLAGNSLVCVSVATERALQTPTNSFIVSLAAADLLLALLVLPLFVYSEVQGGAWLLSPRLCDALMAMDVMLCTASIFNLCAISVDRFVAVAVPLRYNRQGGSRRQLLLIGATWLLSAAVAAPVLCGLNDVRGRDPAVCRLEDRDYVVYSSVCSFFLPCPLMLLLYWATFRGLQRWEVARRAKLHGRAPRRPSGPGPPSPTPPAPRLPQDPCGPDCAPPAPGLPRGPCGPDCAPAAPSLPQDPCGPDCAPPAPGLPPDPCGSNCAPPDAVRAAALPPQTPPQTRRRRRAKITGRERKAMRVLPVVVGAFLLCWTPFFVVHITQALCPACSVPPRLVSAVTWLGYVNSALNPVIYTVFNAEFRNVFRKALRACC
Method: (§1) Functional studies at both human D3 and D4 receptors receptors were carried by employing a PatHunter Beta-arrestin express GPCR assay kit from DiscoverX. Cells were plated maintained for 48 h at 37°C in a 5% CO2 atmosphere in cell plating reagen t provided in the kit.
(§2) Cells were treated with the test compounds for 30 min at 37°C and dopamine was added to the corresponding wells and incubated for additional 90 min at 37°C. Cells were then treated with the working detection solution provided with the kit for 1 h and beta-arrestin translocation was measured by luminescence detection (integration time=500 ms) in a Tecan M1000 Genius Pro reader.
(§3) Data were normalized to dopamine maximum effect and fitted to a 4-parameter logistic equation Prism v2.1 (GraphPad Inc).

human D1 receptors = molecular target: T2, human D1 receptors (Homo sapiens, UniProt P21728); experiment: Allosteric modulation of human dopamine D1 receptors: dopamine-induced cAMP production (HTRF) in SK-N-MC cells; type: cell-based; conditions: for Potentiation (%) at 5 µM / Potentiation (%) at 10 µM: potentiation of dopamine Emax; for Potentiation (%) at 5 µM: compound at 5 µM (values marked *); for Potentiation (%) at 10 µM: compound at 10 µM
T2 construct: endogenously expressed human D1 receptors in SK-N-MC cell line; host or cells: SK-N-MC human neuroblastoma cells
Method: Functional studies at human D1 receptors were carried out in endogenously expressed human D1 receptors in SK-N-MC cell line (ATCC). SK-N-MC cells were thawed and seeded into a black 96-well plate (1×10^4 cells/well) in Optimem containing 500 µM IBMX.
Cells were treated with the test compounds for 15 min at 25°C and dopamine was added to the corresponding wells and incubated for additional 15 min at 25°C. Treated cells were lysed and the cAMP concentration was measured by homogeneous time-resolved fluorescence energy transfer (HTRF; Cisbio Kit). HTRF was read in a Tecan M1000 Genius Pro reader (λexcitation = 320 nm, λemission = 620 nm and 665 nm, 30 flashes).
as §3
If the observed effect is dose-dependent, compounds were then tested in the cAMP assay, this time maintaining a fixed concentration of dopamine (=EC70) while increasing the concentration of the compound, and the potentiation of the dopamine effect was measured.

[1] = molecular target: T3, recombinant human D2 receptors (Homo sapiens, UniProt P14416); experiment: Functional assay at human D2 receptors: cAMP (HTRF), forskolin-stimulated CHO cells; type: cell-based; conditions: Figure 3
T3 construct: expressed in transfected cells; host or cells: CHO cell line, stably transfected in-house
Method: Functional studies at D2 receptors were carried out in recombinant human D2 receptors stably transfected in-house in a CHO cell line. Cells were thawed and seeded into a 96-well plate (5×10^3 cells/well) in Optimem containing 500 µM IBMX.
Cells were treated with the test compounds for 5 min at 37°C and dopamine was added to the corresponding wells and incubated for additional 10 min at 37°C. After this time cells were treated with 10 µM forskolin for 5 min at 37°C. Treated cells were lysed and the cAMP concentration was measured by homogeneous time-resolved fluorescence energy transfer (HTRF; Cisbio Kit). HTRF was read in a Tecan M1000 Genius Pro reader (λexcitation = 320 nm, λemission = 620 nm and 665 nm, 30 flashes).
as §3

[2] = molecular target: T4, human dopamine D1 receptor (Homo sapiens, UniProt P21728); experiment: Agonist effect at human dopamine D1 receptors: cAMP (HTRF) in SK-N-MC cells without dopamine; type: cell-based; parameters: endogenously expressed human D1 receptors in SK-N-MC cell line; host or cells: SK-N-MC human neuroblastoma cells; conditions: in the absence of dopamine, cAMP (Figure 2)
Method: SK-N-MC cells seeded into a black 96-well plate (1×10^4 cells/well) in Optimem containing 500 µM IBMX were treated with the test compounds for 15 min at 25°C. Treated cells were lysed and the cAMP concentration was measured by homogeneous time-resolved fluorescence energy transfer (HTRF; Cisbio Kit). HTRF was read in a Tecan M1000 Genius Pro reader (λexcitation = 320 nm, λemission = 620 nm and 665 nm, 30 flashes).
as §3

human D3 receptors = human D3 receptors (Homo sapiens, UniProt P35462); experiment: Functional assay at human D3 receptors: PatHunter Beta-arrestin express GPCR assay; type: cell-based; conditions: beta-arrestin translocation, Figure 4
Method: as §1, §2, §3

[3] = molecular target: T4, human dopamine D1 receptor; experiment: Radioligand binding assay at human D1 receptors ([3H]SCH23390 displacement, membranes); parameters: purchased Perkin Elmer; conditions: 0.7 nM [3H]SCH23390, orthosteric site
Method: Assays were carried out by using plasma membranes (12 µg/well) expressing human dopamine D1 receptor (Perkin Elmer). Membranes were incubated in a Multiscreen FC 96-well plate (Millipore) with 0.7 nM [^3H]SCH23390 (Perkin Elmer) and increasing amounts of the test compound in assay buffer (50 mM Tris-HCl, 5 mM MgCl2; pH=7.4) for 1 h at 27°C. After this time the well content was filtered through a Millipore manifold and membranes washed 4 times with assay buffer. Plate was dried and radioactivity was measured in a Microbeta Trilux liquid scintillation reader (Perkin-Elmer). Non-specific binding was determined in the presence of 1 µM (+)-butaclamol.
Data were normalized to percentage of specific binding and fitted to a 4-parameter logistic equation with Prism v2.1 (GraphPad Inc).

human D5 receptors = human D5 receptors (Homo sapiens, UniProt P21918); experiment: Functional assay at human D5 receptors: cAMP Hunter express DRD5 assay; type: cell-based; conditions: cAMP formation, Figure 6
Method: Functional studies at human D5 receptors receptors were carried by employing a cAMP Hunter express DRD5 assay kit from DiscoverX. Cells were plated maintained for 24 h at 37°C in a 5% CO2 atmosphere in cell plating reagent provided in the kit.
Cells were treated with the test compounds for 15 min at 37°C and dopamine was added to the corresponding wells and incubated for additional 30 min at 37°C. Cells were then treated with the cAMP detection solution provided with the kit for 1 h and then cAMP solution A was added to each well and incubated for 3 h at RT. cAMP formation was measured by luminescence detection (integration time=500 ms) in a Tecan M1000 Genius Pro reader.
as §3

Chain of human D3 receptors (P35462 whole entry): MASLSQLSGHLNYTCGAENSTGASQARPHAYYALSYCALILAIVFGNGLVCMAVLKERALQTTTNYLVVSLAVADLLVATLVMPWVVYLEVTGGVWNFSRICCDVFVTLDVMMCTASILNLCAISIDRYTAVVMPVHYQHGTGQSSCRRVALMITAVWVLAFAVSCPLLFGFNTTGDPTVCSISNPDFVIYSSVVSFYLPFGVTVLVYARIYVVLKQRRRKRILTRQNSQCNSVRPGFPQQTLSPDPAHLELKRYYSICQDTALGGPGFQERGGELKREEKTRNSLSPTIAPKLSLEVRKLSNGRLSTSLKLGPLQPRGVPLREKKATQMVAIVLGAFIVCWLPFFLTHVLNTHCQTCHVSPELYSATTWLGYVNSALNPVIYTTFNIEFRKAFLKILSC
T4 sequence (P21728 whole entry): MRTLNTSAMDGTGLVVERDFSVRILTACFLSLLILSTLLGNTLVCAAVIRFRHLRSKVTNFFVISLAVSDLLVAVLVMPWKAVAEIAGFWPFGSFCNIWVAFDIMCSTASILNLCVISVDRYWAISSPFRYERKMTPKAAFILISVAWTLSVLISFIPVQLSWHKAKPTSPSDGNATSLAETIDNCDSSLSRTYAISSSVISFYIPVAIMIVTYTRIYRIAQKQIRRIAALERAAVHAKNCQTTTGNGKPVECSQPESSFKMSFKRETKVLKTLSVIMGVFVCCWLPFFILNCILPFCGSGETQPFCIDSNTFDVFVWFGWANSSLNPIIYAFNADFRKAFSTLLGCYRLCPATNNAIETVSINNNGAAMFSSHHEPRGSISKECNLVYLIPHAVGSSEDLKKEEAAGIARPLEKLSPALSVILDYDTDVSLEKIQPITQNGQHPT
T2 sequence (P21728 whole entry): as above
T3 sequence (P14416 whole entry): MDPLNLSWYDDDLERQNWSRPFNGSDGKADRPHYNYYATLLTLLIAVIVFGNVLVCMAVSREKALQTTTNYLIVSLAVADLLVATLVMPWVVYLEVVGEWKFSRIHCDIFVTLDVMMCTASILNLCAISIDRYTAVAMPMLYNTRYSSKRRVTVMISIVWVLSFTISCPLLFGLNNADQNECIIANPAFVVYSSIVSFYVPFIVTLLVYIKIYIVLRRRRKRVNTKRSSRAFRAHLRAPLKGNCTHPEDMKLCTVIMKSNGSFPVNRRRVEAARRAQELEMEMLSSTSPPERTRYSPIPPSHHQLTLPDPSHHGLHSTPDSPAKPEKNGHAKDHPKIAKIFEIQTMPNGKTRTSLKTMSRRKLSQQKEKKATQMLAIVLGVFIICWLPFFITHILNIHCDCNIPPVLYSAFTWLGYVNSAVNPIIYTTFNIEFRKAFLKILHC
Chain of human D5 receptors (P21918 whole entry): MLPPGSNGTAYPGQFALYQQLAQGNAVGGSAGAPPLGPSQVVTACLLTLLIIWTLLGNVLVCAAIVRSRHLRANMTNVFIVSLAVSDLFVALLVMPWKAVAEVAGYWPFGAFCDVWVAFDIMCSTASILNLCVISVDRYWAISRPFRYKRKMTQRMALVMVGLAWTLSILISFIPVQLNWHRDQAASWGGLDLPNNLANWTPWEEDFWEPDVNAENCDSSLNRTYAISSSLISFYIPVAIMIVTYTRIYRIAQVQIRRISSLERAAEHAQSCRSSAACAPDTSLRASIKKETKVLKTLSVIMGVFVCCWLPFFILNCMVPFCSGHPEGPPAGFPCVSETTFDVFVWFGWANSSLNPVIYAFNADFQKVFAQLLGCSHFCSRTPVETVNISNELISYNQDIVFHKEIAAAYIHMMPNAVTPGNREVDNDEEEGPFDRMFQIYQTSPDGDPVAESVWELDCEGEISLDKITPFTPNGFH

## CS(=N)(=O)c1ccc(-c2ccccc2OCF)cc1 (racemic) [Ik, 2-(Fluoromethoxy)-4'-(S-methylsulfonimidoyl)biphenyl]
Human D4 receptors
  functional subtype selectivity against D4 receptor: functional subtype selectivity
Human D1 receptors; potency in the presence of dopamine (fixed concentration = EC70)
  pEC50: 7.22
Human D1 receptors
  Potentiation (%) at 5 µM: 35%
  Potentiation (%) at 10 µM: 55%
[1]
  functional subtype selectivity against dopamine D2 receptor: functional subtype selectivity
[2]
  intrinsic agonist activity: no potentiation
Human D3 receptors
  functional subtype selectivity against D3 receptor: functional subtype selectivity
[3]
  inhibition at 10 µM: 36%
Human D5 receptors
  functional subtype selectivity against D5 receptor: functional subtype selectivity

## C[S@@](=N)(=O)c1ccc(-c2ccccc2OCF)cc1 [(R)-Ik, (R)-2-(Fluoromethoxy)-4'-(S-methylsulfonimidoyl)biphenyl]
Human D4 receptors
  functional subtype selectivity against D4 receptor: functional subtype selectivity
Human D1 receptors
  Potentiation (%) at 5 µM: 63%
[1]
  functional subtype selectivity against dopamine D2 receptor: functional subtype selectivity
[2]
  intrinsic agonist activity: no potentiation
Human D3 receptors
  functional subtype selectivity against D3 receptor: functional subtype selectivity
[3]
  inhibition at 10 µM: 12%
Human D5 receptors
  functional subtype selectivity against D5 receptor: functional subtype selectivity

## C[S@](=N)(=O)c1ccc(-c2ccccc2OCF)cc1 [(S)-Ik, (S)-2-(Fluoromethoxy)-4'-(S-methylsulfonimidoyl)biphenyl]
Human D4 receptors
  functional subtype selectivity against D4 receptor: functional subtype selectivity
Human D1 receptors
  Potentiation (%) at 5 µM: 47%
[1]
  functional subtype selectivity against dopamine D2 receptor: functional subtype selectivity
[2]
  intrinsic agonist activity: no potentiation
Human D3 receptors
  functional subtype selectivity against D3 receptor: functional subtype selectivity
[3]
  inhibition at 10 µM: 6%
Human D5 receptors
  functional subtype selectivity against D5 receptor: functional subtype selectivity

## CS(=N)(=O)c1ccc(-c2ccccc2OC(F)F)cc1 (stereo not drawn) [Ia, 2-(Difluoromethoxy)-4'-(S-methylsulfonimidoyl)biphenyl]
Human D1 receptors
  Potentiation (%) at 10 µM: 27%

## CN=S(C)(=O)c1ccc(-c2ccccc2OC(F)F)cc1 (stereo not drawn) [Ib, 2-(Difluoromethoxy)-4'-(N,S-dimethylsulfonimidoyl)biphenyl]
Human D1 receptors
  Potentiation (%) at 10 µM: 64%

## CCS(=N)(=O)c1ccc(-c2ccccc2OC(F)F)cc1 (stereo not drawn) [Ic, 2-(Difluoromethoxy)-4'-(S-ethylsulfonimidoyl)biphenyl]
Human D1 receptors
  Potentiation (%) at 10 µM: 39%

## CS(=N)(=O)c1ccc(-c2ccccc2OC(F)F)cc1Cl (stereo not drawn) [Id, 3'-Chloro-2-(difluoromethoxy)-4'-(S-methylsulfonimidoyl)biphenyl]
Human D1 receptors
  Potentiation (%) at 10 µM: 25%

## CN=S(C)(=O)c1ccc(-c2ccccc2OC(F)F)cc1Cl (stereo not drawn) [Ie, 3'-Chloro-2-(difluoromethoxy)-4'-(N,S-dimethylsulfonimidoyl)biphenyl]
Human D1 receptors
  Potentiation (%) at 10 µM: 33%

## CS(=N)(=O)c1ccc(-c2ccccc2OC(F)(F)F)cc1Cl (stereo not drawn) [If, 3'-Chloro-4'-(S-methylsulfonimidoyl)-2-(trifluoromethoxy)biphenyl]
Human D1 receptors
  Potentiation (%) at 10 µM: 30%

## CN=S(C)(=O)c1ccc(-c2ccccc2OC(F)(F)F)cc1Cl (stereo not drawn) [Ig, 3'-Chloro-2-(trifluoromethoxy)-4'-(N,S-dimethylsulfonimidoyl)biphenyl]
Human D1 receptors
  Potentiation (%) at 10 µM: 27%

## CN=S(C)(=O)c1ccc(-c2ccccc2OCF)cc1 (stereo not drawn) [Ih, 4'-(N,S-Dimethylsulfonimidoyl)-2-(fluoromethoxy)biphenyl]
Human D1 receptors
  Potentiation (%) at 10 µM: 30%

## CCS(=N)(=O)c1ccc(-c2ccccc2OCF)cc1 (stereo not drawn) [Ii, 2-(Fluoromethoxy)-4'-(S-ethylsulfonimidoyl)biphenyl]
Human D1 receptors
  Potentiation (%) at 10 µM: 54%

## CN=S(C)(=O)c1ccc(-c2ccccc2OCF)cc1Cl (stereo not drawn) [Ij, 3'-Chloro-2-(fluoromethoxy)-4'-(N,S-dimethylsulfonimidoyl)biphenyl]
Human D1 receptors
  Potentiation (%) at 10 µM: 35%
